In patent publication US20250318521A1, “COMBINATION FOR REDUCING PHYTOTOXICITY OF SYSTEMIC FUNGICIDES IN CROPS AND RELATED METHODS” (UPL Mauritius Limited, priority 2024, published 2025):

System: soyabean crop
Experiment: Evaluation of % damage in soyabean crop using safener (prothioconazole phytotoxicity reduction)
Description: A 480 SC (suspension concentrate) formulation of prothioconazole was used. The application amount of prothioconazole was high in an amount of 350 g ai/ha.
A 480 SC (suspension concentrate) formulation of prothioconazole was used. The application amount of prothioconazole was lower in an amount of 175 g ai/ha.

mancozeb
% Damage (prothioconazole 175 g ai/ha (480 SC) + safener 560 g ai/ha, ratio 1:3.2): 15.0%
% Damage (prothioconazole 175 g ai/ha (480 SC) + safener 1120 g ai/ha, ratio 1:6.4): 18.0%
% Damage (prothioconazole 175 g ai/ha (480 SC) + safener 1680 g ai/ha, ratio 1:9.6): 11.7%
% Damage (prothioconazole 350 g ai/ha (480 SC) + safener 560 g ai/ha, ratio 1:1.6): 32.5%
% Damage (prothioconazole 350 g ai/ha (480 SC) + safener 1120 g ai/ha, ratio 1:3.2): 21.7%
% Damage (prothioconazole 350 g ai/ha (480 SC) + safener 1680 g ai/ha, ratio 1:4.8): 19.2%
